Reference: patent publication US20210330611A1, “THERAPY FOR NEUROLOGICAL DISEASES/DISORDERS” (priority 2020, published 2021)
Structures can show the parent of a compound that is named as a salt. Where two headings read alike, the source gives them in different places.

Legend:
primary rat microglia [1] = test: Cell toxicity (dead cells, size <150 μm2) in coated fibrin (cFib) assay; settings: for Fibrin % cell toxicity: primary microglia HTS, fibrin stimulation, decreased size (<150 μm^2) as marker of toxicity; for IC50: read-out: Cell Toxicity IC50 (uM) [cFib assay];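 on Fibrin % cell toxicity: share of dead cells sized under 150 µm2 at 10 µM in fibrin-stimulated microglia HTS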
primary rat microglia [2] = test: Cell toxicity (dead cells, size <150 μm2) in LPS assay; settings: for LPS % cell toxicity: primary microglia HTS, LPS stimulation, decreased size (<150 μm^2) as marker of toxicity; for IC50: read-out: Cell Toxicity IC50 (uM) [LPS assay]
[3] = system: fibrin- and LPS-induced microglia activation; test: cells; format: cell-based, rat; settings: for Hit: HTS hit classification
[4] = system: LPS-induced microglia activation; test: Image-based assay of LPS-induced microglia activation (HTS and dose response); format: cell-based, rat; settings: for inhibition at 10 µM: Rattus norvegicus, Microglia, read-out: LPS % inhibition; for inhibition at 10 µM / LPS % inhibition: primary microglia HTS, LPS stimulation
[5] = system: fibrin-induced microglia activation; test: Image-based assay of fibrin-induced microglia activation (HTS and dose response); format: cell-based, rat; settings: for Fibrin % inhibition / inhibition at 10 µM: primary microglia HTS, fibrin stimulation; for inhibition at 10 µM: Rattus norvegicus, Microglia, read-out: Fibrin % inhibition
[6] = quadrant by fibrin and LPS inhibition in HTS of 1907 compounds
[7] = 48 h, increased cell size (>800 μm^2) as marker of activation
[8] = increased cell size (>800 μm^2) as marker of activation
[9] = HTS of 1907 compounds, quadrant by fibrin and LPS inhibition
[10] = hit classification in microglia HTS
[11] = LPS-induced microglia activation, dose response, read-out: LPS IC50 (uM) (Suppl. Table 7)
[12] = Table 1, dose response 0.001-20 μM, triplicates, primary rat microglia, 48 h, read-out: LPS IC50
[13] = Table 3, read-out: LPS IC50 (uM) (Suppl. Table 7)
[14] = dose response, LPS-induced microglia activation, read-out: LPS IC50
[15] = Table 1, dose response 0.001-20 μM, triplicates, primary rat microglia, 48 h, read-out: Fibrin IC50
[16] = Table 3, read-out: Fibrin IC50 (uM) (Suppl. Table 7)
[17] = dose response, fibrin-induced microglia activation, read-out: Fibrin IC50
[18] = fibrin-induced microglia activation, dose response, read-out: Fibrin IC50 (uM) (Suppl. Table 7)

## CCOC(=O)C1=C[C@@H](OC(CC)CC)[C@H](NC(C)=O)[C@@H](N)C1 [Oseltamivir]
Primary rat microglia [1]
  Fibrin % cell toxicity: 1%
Primary rat microglia [2]
  LPS % cell toxicity: 1%
[3]; [6]
  Quadrant (FIG. 5b): Q4
[4]; [7]
  inhibition at 10 µM: 26%
[5]; [8]
  Fibrin % inhibition: −28%

## Cc1onc(-c2ccccc2)c1C(=O)N[C@@H]1C(=O)N2[C@@H]1SC(C)(C)[C@@H]2C(=O)[O-].[Na+] [Oxacillin Sodium]
Primary rat microglia [1]
  Fibrin % cell toxicity: 0%
Primary rat microglia [2]
  LPS % cell toxicity: 0%
[3]; [6]
  Quadrant (FIG. 5b): Q4
[4]; [8]
  LPS % inhibition: 11%
[5]; [8]
  Fibrin % inhibition: −20%

## O=C1[O][Pt]2([NH][C@@H]3CCCC[C@H]3[NH]2)[O]C1=O [Oxaliplatin, reference compound]
Primary rat microglia [1]; Table 3
  IC50: > 20 µM
Primary rat microglia [1]; cFib assay
  IC50: > 20 µM
Primary rat microglia [2]; LPS assay
  IC50: > 20 µM
Primary rat microglia [2]; Table 3
  IC50: > 20 µM
[3]
  Hit: HIT (Hits were defined as molecules that exhibited greater than 50% inhibition of either fibrin or LPS activation)
[3]; [9]
  Quadrant (FIG. 5b): Q3
[3]; Table 1, screen at 10 μM
  Quadrant (FIG. 5b): Q3
[3]; Table 3
  Cherry-picked Hit (Suppl. Table 7): HIT (Hits were defined as molecules that exhibited greater than 50% inhibition of either fibrin or LPS activation)
[3]; Table 3, screen at 10 μM
  Quadrant (FIG. 5b): Q3
[3]; [10]
  Cherry-picked Hit (Suppl. Table 7): HIT (Hits were defined as molecules that exhibited greater than 50% inhibition of either fibrin or LPS activation)
[3]; [6]
  Quadrant (FIG. 5b): Q3
[3]; quadrant by fibrin and LPS inhibition, HTS at 10 μM
  Quadrant (FIG. 5b): Q3
[4]; [11]
  IC50: 15 µM
[4]; [12]
  IC50: 15 µM
[4]; [13]
  IC50: 15 µM
[4]; [14]
  IC50: 15 µM
[4]; compounds at 10 μM
  LPS % inhibition: 21%
[4]; [8]
  LPS % inhibition: 41%
[5]; [15]
  IC50: 5 µM
[5]; [16]
  IC50: 5 µM
[5]; [17]
  IC50: 5 µM
[5]; [18]
  IC50: 5 µM
[5]; compounds at 10 μM
  Fibrin % inhibition: 66%
[5]; [8]
  Fibrin % inhibition: 96%

## O=C(O)CCc1nc(-c2ccccc2)c(-c2ccccc2)o1 [Oxaprozin]
Primary rat microglia [1]
  Fibrin % cell toxicity: 1%
Primary rat microglia [2]
  LPS % cell toxicity: 1%
[3]; [6]
  Quadrant (FIG. 5b): Q4
[4]; [7]
  inhibition at 10 µM: 15%
[5]; [8]
  inhibition at 10 µM: 0%

## NC(=O)N1c2ccccc2CC(=O)c2ccccc21 [Oxcarbazepine, Trileptal]
Primary rat microglia [1]
  Fibrin % cell toxicity: 1%
Primary rat microglia [2]
  LPS % cell toxicity: 0%
[3]; [6]
  Quadrant (FIG. 5b): Q4
[4]; [8]
  LPS % inhibition: 35%
[5]; [8]
  Fibrin % inhibition: 3%

## CCN(CC)CCOCCOC(=O)C(CC)(CC)c1ccccc1 [Oxeladin]
Primary rat microglia [1]
  Fibrin % cell toxicity: 1%
Primary rat microglia [2]
  LPS % cell toxicity: 0%
[3]; [6]
  Quadrant (FIG. 5b): Q4
[4]; [7]
  inhibition at 10 µM: 6%
[5]; [8]
  inhibition at 10 µM: -27%

## CN(C(=O)CN(CCO)CC(=O)N(C)C(C)(C)Cc1ccccc1)C(C)(C)Cc1ccccc1 [Oxethazaine]
Primary rat microglia [1]
  Fibrin % cell toxicity: 1%
Primary rat microglia [2]
  LPS % cell toxicity: 0%
[3]; [6]
  Quadrant (FIG. 5b): Q4
[4]; [7]
  inhibition at 10 µM: 42%
[5]; [8]
  inhibition at 10 µM: 25%

## COC(=O)Nc1nc2ccc([S+]([O-])c3ccccc3)cc2[nH]1 (stereo not shown) [Oxfendazole]
Primary rat microglia [1]
  Fibrin % cell toxicity: 0%
Primary rat microglia [2]
  LPS % cell toxicity: 1%
[3]; [6]
  Quadrant (FIG. 5b): Q4
[4]; [7]
  inhibition at 10 µM: 20%
[5]; [8]
  inhibition at 10 µM: 10%

## NCCc1cc(O)c(O)cc1O [Oxidopamine Hydrochloride]
Primary rat microglia [1]
  Fibrin % cell toxicity: 0%
Primary rat microglia [2]
  LPS % cell toxicity: 0%
[3]; [6]
  Quadrant (FIG. 5b): Q4
[4]; [7]
  inhibition at 10 µM: 19%
[5]; [8]
  inhibition at 10 µM: 1%

## O=C(O)c1ccc[n+]([O-])c1 [Oxiniacic Acid]
Primary rat microglia [1]
  Fibrin % cell toxicity: 1%
Primary rat microglia [2]
  LPS % cell toxicity: 0%
[3]; [6]
  Quadrant (FIG. 5b): Q4
[4]; [7]
  inhibition at 10 µM: 12%
[5]; [8]
  inhibition at 10 µM: -6%

## CCCOc1ccc2[nH]c(NC(=O)OC)nc2c1 [Oxybendazole, reference compound]
Primary rat microglia [1]
  Fibrin % cell toxicity: 2%
Primary rat microglia [1]; Table 3
  IC50: > 20 µM
Primary rat microglia [1]; cFib assay
  IC50: > 20 µM
Primary rat microglia [2]
  LPS % cell toxicity: 1%
Primary rat microglia [2]; LPS assay
  IC50: > 20 µM
Primary rat microglia [2]; Table 3
  IC50: > 20 µM
[3]
  Hit: HIT (Hits were defined as molecules that exhibited greater than 50% inhibition of either fibrin or LPS activation)
[3]; [9]
  Quadrant (FIG. 5b): Q3
[3]; Table 1, screen at 10 μM
  Quadrant (FIG. 5b): Q3
[3]; Table 3
  Cherry-picked Hit (Suppl. Table 7): HIT (Hits were defined as molecules that exhibited greater than 50% inhibition of either fibrin or LPS activation)
[3]; Table 3, screen at 10 μM
  Quadrant (FIG. 5b): Q3
[3]; [10]
  Cherry-picked Hit (Suppl. Table 7): HIT (Hits were defined as molecules that exhibited greater than 50% inhibition of either fibrin or LPS activation)
[3]; [6]
  Quadrant (FIG. 5b): Q3
[4]; [11]
  IC50: 12 µM
[4]; [12]
  IC50: 12 µM
[4]; [13]
  IC50: 12 µM
[4]; [14]
  IC50: 12 µM
[4]; [8]
  LPS % inhibition: 15%
[5]
  Fibrin Selectivity: 2
  Fibrin Selectivity (LOG10): 0.22
[5]; [15]
  IC50: 7 µM
[5]; [16]
  IC50: 7 µM
[5]; [17]
  IC50: 7 µM
[5]; [18]
  IC50: 7 µM
[5]; [8]
  Fibrin % inhibition: 78%

## COc1ccc(C(=O)c2ccccc2)c(O)c1 [Oxybenzone]
Primary rat microglia [1]
  Fibrin % cell toxicity: 0%
Primary rat microglia [2]
  LPS % cell toxicity: 0%
[3]; [6]
  Quadrant (FIG. 5b): Q4
[4]; [7]
  inhibition at 10 µM: 12%
[5]; [8]
  inhibition at 10 µM: -15%

## CCCCOc1cc(C(=O)OCCN(CC)CC)ccc1N [Oxybuprocaine]
Primary rat microglia [1]
  Fibrin % cell toxicity: 1%
Primary rat microglia [2]
  LPS % cell toxicity: 0%
[3]; [6]
  Quadrant (FIG. 5b): Q4
[4]; [7]
  inhibition at 10 µM: 11%
[5]; [8]
  inhibition at 10 µM: 7%

## Cc1cc(C(C)(C)C)c(O)c(C)c1CC1=NCCN1 [Oxymetazoline]
Primary rat microglia [1]
  Fibrin % cell toxicity: 1%
Primary rat microglia [2]
  LPS % cell toxicity: 0%
[3]; [6]
  Quadrant (FIG. 5b): Q4
[4]; [7]
  inhibition at 10 µM: 20%
[5]; [8]
  inhibition at 10 µM: -13%

## C[C@]12C/C(=C/O)C(=O)C[C@@H]1CC[C@@H]1[C@@H]2CC[C@@]2(C)[C@H]1CC[C@]2(C)O [Oxymetholone]
Primary rat microglia [1]
  Fibrin % cell toxicity: 1%
Primary rat microglia [2]
  LPS % cell toxicity: 0%
[3]; [6]
  Quadrant (FIG. 5b): Q4
[4]; [7]
  inhibition at 10 µM: -7%
[5]; [8]
  inhibition at 10 µM: -18%

## CN1CCCN=C1COC(=O)C(O)(c1ccccc1)C1CCCCC1 (stereo not shown) [Oxyphencyclimine]
Primary rat microglia [1]
  Fibrin % cell toxicity: 1%
Primary rat microglia [2]
  LPS % cell toxicity: 0%
[3]; [6]
  Quadrant (FIG. 5b): Q4
[4]; [7]
  inhibition at 10 µM: 11%
[5]; [8]
  inhibition at 10 µM: 15%

## CC[N+](C)(CC)CCOC(=O)C(O)(c1ccccc1)C1CCCCC1 (stereo not shown) [Oxyphenonium]
Primary rat microglia [1]
  Fibrin % cell toxicity: 1%
Primary rat microglia [2]
  LPS % cell toxicity: 1%
[3]; [6]
  Quadrant (FIG. 5b): Q4
[4]; [7]
  inhibition at 10 µM: 30%
[5]; [8]
  inhibition at 10 µM: -14%

## Cc1ccc(O)cc1 [P-Cresol]
Primary rat microglia [1]
  Fibrin % cell toxicity: 0%
Primary rat microglia [2]
  LPS % cell toxicity: 0%
[3]; [6]
  Quadrant (FIG. 5b): Q4
[4]; [8]
  LPS % inhibition: 15%
[5]; [8]
  Fibrin % inhibition: −15%

## NCCC(O)(P(=O)(O)O)P(=O)(O)O [Pamidronate]
Primary rat microglia [1]
  Fibrin % cell toxicity: 1%
Primary rat microglia [2]
  LPS % cell toxicity: 0%
[3]; [6]
  Quadrant (FIG. 5b): Q4
[4]; [7]
  inhibition at 10 µM: -5%
[5]; [8]
  inhibition at 10 µM: 0%

## CC(C)(CO)C(O)C(=O)NCCCO (stereo not shown) [Panthenol]
Primary rat microglia [1]
  Fibrin % cell toxicity: 1%
Primary rat microglia [2]
  LPS % cell toxicity: 0%
[3]; [6]
  Quadrant (FIG. 5b): Q4
[4]; [7]
  inhibition at 10 µM: 6%
[5]; [8]
  inhibition at 10 µM: -32%
